# Bridge positions count the residues as written; N and C are the ends. Ends that are not written are not given here.
# Tests used:
# B. pertussis isolates = details: cited from earlier work
# Listeria monocytogenes = details: 40 μg/ml; cited from earlier work
# B. bronchiseptica [1] = assay: In vitro bactericidal activity against B. bronchiseptica, plate counts; format: cell-based
# Description: (§1) E. coli, Actinobacillus pleuropneumoniae and B. bronchiseptica were grown on agar plates using routine procedures. The bacteria were washed off the plates, washed in saline and subsequently resuspended in media. They were co-incubated with pBD-1 in varying doses and incubated for various time periods (6-48 hours). The bacteria were quantified by plating the suspension onto agar plates.
# (§2) Bactericidal activity of bronchoalveolar lavage (BAL) fluid obtained from non-infected piglets was analyzed against B. pertussis in vitro. Non-infected piglets, either 4-5 weeks old or newborn piglets (6 hours old, colostrum-deprived or colostrum-fed), were euthanized and BALs were collected in Stainer-Scholte (SS) medium. The BAL fluid was obtained by filling the lungs with 10 ml of SS medium and withdrawing as much fluid as possible (this procedure was performed once). Alveolar macrophages and other cells were removed by centrifugation at 500 g for 10 minutes. BALs (290 μl) were co-cultured in microtiter plates with 10 μl bacterial suspension containing 5-7×10^6 CFU of B. pertussis at 37° C. Supernatants were plated onto BG agar plates at different time points to evaluate the number of viable bacteria. The sensitivity of B. pertussis to synthetically derived pBD-1 and human beta-defensin 2 (hBD-2) was assayed by co-culturing appropriate concentrations of pBD-1 or hBD-2 in SS-medium (280 μl) with 5-7×10^6 CFU (10 μl) bacteria. Plates were incubated at 37° C. for 2, 6, 18 and 24 hours. The same procedures were followed to investigate the inhibitory effects of BAL, pBD-1 and hBD-2 against B. bronchiseptica in vitro.
# E. coli = assay: In vitro inhibitory activity against E. coli; format: cell-based; details: results not shown
# Description: as §1
# (§3) The inhibitory activity of pBD-1 on the Gram-negative bacteria Actinobacillus pleuropneumoniae, Bordetella bronchiseptica, Streptococcus suis and E. coli was also examined. FIGS. 6A-6B show the results on A. pleuropneumoniae, S. suis, B. bronchiseptica and B. pertussis. The results for E. coli are not shown.
# Streptococcus suis = assay: In vitro inhibitory activity against Streptococcus suis; format: cell-based; details: FIG. 6B
# Description: as §3
# B. bronchiseptica [2] = assay: Transmission electron microscopy of B. bronchiseptica after pBD-1 treatment; format: cell-based; details: 80 μg/ml
# Description: To determine the potential mechanism of action of pBD-1, transmission electron microscopy (TEM) was employed to evaluate the effect of pBD-1 on the bacterial membrane of B. pertussis and B. […] and incubated for 60 minutes at 37° C. Bacteria were washed with PBS, fixed with an equal volume of 5% glutaraldehyde in 0.1 M sodium cacodylate buffer (pH 7.4), and centrifuged at 5000 g for 5 minutes. Cells were resuspended in 1% agarose and pelleted. The bacterial pellets were stored in the fixative (2.5% glutaraldehyde) at 4° C. for 2 hours. The samples were dehydrated and en bloc stained with uranyl acetate in a series of ethanol concentrations and then embedded in Epon/Araldite. Thin sections were cut using an ultramicrotome with a diamond knife, mounted on specimens grids and stained with uranyl acetate and lead citrate before being examined on a transmission electron microscope (Philips 410LS) operating at 80 kV and at magnification ranging from 24000-55000×.
# B. pertussis [3] = assay: In vitro bactericidal activity against B. pertussis in SS medium, viable counts (CFU) on BG agar; format: cell-based, B. pertussis strain Tohama I
# Description: The B. pertussis strain used in these experiments was Tohama I. Bacterial suspensions were stored at −70° C. in casamino acid plus 10% glycerol. Organisms were initially grown on the surface of Bordet-Gengou (BG) agar containing 15% (vol/vol) defibrinated sheep blood and 40 μg/ml of Cephalexin at 37° C. for 48 hrs. The bacterial cells were harvested and washed in phosphate-buffered saline (PBS, pH 7.2) by centrifugation at 2500 g for 10 min. The pellets were resuspended in saline and adjusted to a specified bacterial titer by determining the optical density at 600 nm using a spectrophotometer; The corresponding viable counts of these suspensions were measured by plating out serial dilutions of the bacterial suspension onto BG-agar and incubating at 37° C. for 4-5 days.
# To examine the bactericidal effect of defensin against B. pertussis, 10 μl of bacterial suspension (OD600 nm of 0.2) was added to 200 μl of Stainer and Scholte (SS) broth medium with or without chemically synthesized defensin at different concentrations in a 96 well plate and incubated at 37° C. for up to 30 hours. At the end of each incubation period (6 hrs, 18 hrs, 24 hrs, 30 hrs), the culture medium was immediately removed for quantification of viable bacteria. The culture medium with or without defensin was plated onto BG agar plates and incubated at 37° C. for up to 4 days after which time the number of colonies were counted. The number of surviving bacteria was estimated by colony-forming units (CFU). The results were confirmed by three independent experiments compared with results from control bacterial culture (no peptide).
# 20, 40 and 80 μg of pBD-1 was added to bacterial culture and incubated at 37° C. Aliquots were removed at 6, 18 and 30 hr post incubation and incubated for 4 days on BG plates at 37° C.
# as §2
# [4] = test system: Actinobacillus pleuropneumoniae; assay: In vitro inhibitory activity against Actinobacillus pleuropneumoniae; format: cell-based; details: FIG. 6A
# Description: as §1, §3
# Candida albicans = details: 40 μg/ml; cited from earlier work
# B. pertussis [5] = assay: Transmission electron microscopy of B. pertussis after pBD-1 treatment; format: cell-based; details: 20 and 40 μg/ml; 60 minutes at 37° C.
# Description: To determine the potential mechanism of action of pBD-1, transmission electron microscopy (TEM) was employed to evaluate the effect of pBD-1 on the bacterial membrane of B. pertussis and B. bronchiseptica following treatment with pBD-1. pBD-1 was added at a final concentration of 20 μg/ml or 40 μg/ml to 5-9×10^9 CFU bacteria and incubated for 60 minutes at 37° C. Bacteria were washed with PBS, fixed with an equal volume of 5% glutaraldehyde in 0.1 M sodium cacodylate buffer (pH 7.4), and centrifuged at 5000 g for 5 minutes. Cells were resuspended in 1% agarose and pelleted. The bacterial pellets were stored in the fixative (2.5% glutaraldehyde) at 4° C. for 2 hours. The samples were dehydrated and en bloc stained with uranyl acetate in a series of ethanol concentrations and then embedded in Epon/Araldite. Thin sections were cut using an ultramicrotome with a diamond knife, mounted on specimens grids and stained with uranyl acetate and lead citrate before being examined on a transmission electron microscope (Philips 410LS) operating at 80 kV and at magnification ranging from 24000-55000×.
# Escherchia coli = details: 40 μg/ml; cited from earlier work
# Salmonella typhimurium = details: 40 μg/ml; cited from earlier work
# B. pertussis [6] = assay: In vivo antimicrobial activity: pBD-1 delivered into lungs of newborn piglets, challenge with B. pertussis
# Description: Pregnant Landrace sows were purchased from the Saskatoon Prairie Swine Centre, University of Saskatchewan. Sows were induced to farrow by intramuscular (i.m.) injection of prostaglandin (Planate) (Schering, Quebec, Canada) at day 113 of gestation. Piglets were born at day 114-115 of gestation. Nursing piglets were kept within the same room, but in separated pens and monitored very closely. The piglets were challenged at 3-5 days of age. All experiments were conducted in accordance with the ethical guidelines of the University of Saskatchewan and the Canadian Council for Animal Care (CCAC).
# Newborn piglets were anaesthetized with isoflurane and intubated using a laryngoscope. Infection was initiated by delivering 5×10^9 CFU of B. pertussis strain Tohama I intrapulmonarily (craniodorsal of the bifurcation) through a MICRO-RENATHANE tube (0.95) (Braintree Scientific Inc., Braintree, Mass., USA), which was inserted through an endotracheal tube (3 mm) (Jorgensen Laboratories Inc. Loveland, Colo., USA). The bottom-end of the MICRO-RENATHANE tube was sealed and minute holes were made for the equal distribution of bacteria. Piglets were monitored twice daily for clinical symptoms including fever and respiratory symptoms such as nasal discharge, non paroxysmal cough and breathing difficulties. Piglets were euthanized by i.p. injection of 5 ml of Euthanyl (Sodium barbiturate; Bimeda-MTC, Ont, Canada) at different time points over a 10 day period post challenge. The thoracic and the abdominal cavities and the lungs were examined for any lesions and abnormalities such as pleuritis or local collections of blood and fluids in the thorax were noted.
# The antimicrobial activity of pBD-1 was tested in vivo by delivery of pBD-1 into the lungs of newborn piglets prior to challenge with B. pertussis. Pregnant sows, Landrace, were purchased from Saskatoon Prairie Swine Centre, University of Saskatchewan. Sows were farrowed out by i.m. injection of prostaglandin (Planate). Three to four day old colostrum-fed piglets were anaesthetized with isoflurane. 500 μg of pBD-1 dissolved in 1.5 ml PBS was delivered to the lung using a tube placed through the trachea in front of the bifurcation which marks the beginning of the lung (craniodorsal of bifurcation). A volume of 1.5 ml was delivered. Following the delivery of the pBD-1, all piglets were challenged with 5×10^9 cfu bacteria (n=10) by the same procedure. Control animals received saline instead of pBD-1 and were subsequently challenged. Piglets were kept with their sows within the same room in separated pens. Piglets were monitored twice a day.
# In addition, the number of bacteria in BAL fluid and lung lesions was examined over a 10 day period. The BAL fluid was obtained by filling the lungs with 15 ml of SS-medium and withdrawing as much fluid as possible. To quantify the presence of B. pertussis in the BAL, fluid samples were centrifuged to remove debris and host cells; supernatant and dilutions thereof were plated onto BG plates and incubated at 37° C. for up to a week. To determine the number of bacteria within tissues, lesions were excised, weighed, homogenized and plated onto BG agar plates.
substance,measurement,setting,value
"human β-defensin-1: human β-defensin-1, cited from Baneman et al. as without effect on B. pertussis (DHYNCVSSGGQCLYSACPIFTKIQGTCYRGKAKCCK; ends and bridges not checked; cysteine pairing not given here; UniProt P60022 33-68, looked up)",effect on B. pertussis isolates,B. pertussis isolates,no effect
"H-KNIGNSVSCLRNKGVCMPGKCAPKMKQIGTCGMPQVKCCKRK-NH2 (disulfide 9-38, 16-31, 21-39) [pBD-1]",salt-dependent bactericidal activity,Listeria monocytogenes,has been demonstrated
same,growth of B. bronchiseptica,"B. bronchiseptica [1]; 40 μg/ml, 6 and 24 hours (FIG. 7B)",unaffected
same,susceptibility of B. bronchiseptica,"B. bronchiseptica [1]; 160 μg/ml, up to 48 hours incubation",resistant
same,inhibitory activity,B. bronchiseptica [1]; FIG. 6C,Inhibitory activity was observed against all of these organisms except B. bronchiseptica
same,inhibitory activity,E. coli,Inhibitory activity was observed
same,inhibitory activity,Streptococcus suis,Inhibitory activity was observed
same,ultrastructural effect on bacteria,B. bronchiseptica [2],did not result in major ultrastructural abnormalities or discrete holes
same,bactericidal activity in diluted SS medium,"B. pertussis [3]; 10 μg/ml, 1/10 diluted SS medium in PBS, shorter period of time (FIG. 5B)",even stronger bactericidal activity
same,growth inhibition in comparison with control medium,"B. pertussis [3]; 20 μg/ml, 6 hours, repeated assay (FIG. 5A)",at least 2 logs
same,inhibition of B. pertussis growth,"B. pertussis [3]; 40 μg/ml, 18 hours of incubation (FIG. 4)",complete inhibition
same,neutralization of 5-8×10^6 CFU of B. pertussis,"B. pertussis [3]; 80 μg/ml, 18 hours, repeated assay (FIG. 5A)",completely neutralized
same,effect of serum on antimicrobial activity,B. pertussis [3]; 10-50% rabbit serum added to the medium,did not inhibit
same,"inhibitory effect against B. pertussis, dependence","B. pertussis [3]; 20, 40, 80 μg, 6, 18, 30 hr",dose and time dependent
same,antimicrobial activity against B. pertussis on addition of salt,B. pertussis [3]; addition of salt,significantly reduced
same,reduction in bacterial growth compared to untreated control wells,"B. pertussis [3]; after 6 hours of incubation, 20-80 μg pBD-1",about 2 logs
same,reduction of bacterial growth,"B. pertussis [3]; after 18 hours, depending on the dose used","more than 100,000 fold"
same,reduction of the bacterial growth,B. pertussis [3]; after 30 hours,"1,000,000 fold"
same,inhibitory activity,[4],Inhibitory activity was observed
same,salt-dependent bactericidal activity,Candida albicans,has been demonstrated
same,morphological effect on the bacterial cell surface,B. pertussis [5],substantial morphological damage
same,salt-dependent bactericidal activity,Escherchia coli,has been demonstrated
same,salt-dependent bactericidal activity,Salmonella typhimurium,has been demonstrated
same,protection of infected piglets,"B. pertussis [6]; 500 μg into the lung at time of challenge, 5×10^9 CFU B. pertussis",complete protection
same,"clinical symptoms (fever, respiratory symptoms)","B. pertussis [6]; 500 μg into the lung, all treated animals, all controls had fever and respiratory symptoms",no clinical symptoms
same,clinical symptoms and pathological alterations,"B. pertussis [6]; 500 μg, at 2, 4, 7 and 10 days post infection",total absence
same,lesions in the histopathology of lung tissues,"B. pertussis [6]; 500 μg, compared with challenged control piglets",either minor or no lesions
same,numbers of bacteria in homogenized lung tissues,"B. pertussis [6]; 500 μg, days 2, 4, 7 and 10 post infection, p<0.005 (FIG. 10B)",significantly lower numbers of bacteria
same,numbers of isolated bacteria in BALs,"B. pertussis [6]; 500 μg, days 2, 4 and 7 post infection, p<0.0001 (FIG. 10A)",significantly reduced

# From patent US20060008466A1, “Methods for treating and preventing microbial infections” (University of Saskatchewan, priority 2004, published 2006)
